Patent US7994185B2, “Benzene sulfonamide thiazole and oxazole compounds” (Glaxo Smith Kline LLC, priority 2008, dated 2011)
Counter-ions that a name gives are not always drawn. Like-named read-outs stand apart in the source and are kept apart here.

Tests used:
[1] = test system: Human colon tumor cells (Colo205); experiment: Cell growth inhibition assay (CellTiter-Glo), Colo205; type: cell-based
Summary of the method: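 Read-out was CellTiter-Glo luminescence (total ATP as a cell-number surrogate), expressed as % inhibition against DMSO vehicle wells. Before that, cells grown in RPMI/10% FBS were treated for 3 days at 37 °C with ten 1:3-spaced compound concentrations, final DMSO 0.2%.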

[2] = target: T1, BRAFV600E full-length (amino acids 2-766) (Homo sapiens, UniProt P15056, V600E); experiment: B-Raf Accelerated MEK ATPase assay (BRAMA); type: biochemical; details: categorized
T1 construct: His6-tagged BRAFV600E full-length (amino acids 2-766); His6; made in house; host or cells: baculovirus expression system (insect cells)
Summary of the method: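 Coupled-enzyme readout: ADP generated by MEK-mediated ATP hydrolysis, uncoupled from ERK phosphorylation, is linked to NADH oxidation through pyruvate kinase and lactate dehydrogenase.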

[3] = test system: Human melanoma cancer cells (SK-MEL-28); experiment: Cell growth inhibition assay (CellTiter-Glo), SK-MEL-28; type: cell-based
[4] = COLO 205, 72 h, Table 2a, 3 days incubation, read-out: Activity in Colo205 Tumor Cells
[5] = COLO 205, Table 2b, later runs, average for the one or more runs, categorized, read-out: IC50 for Colo205
[6] = B-Raf Activity, Table 1a, highest pIC50 for the one or more runs
[7] = B-Raf pIC50, Table 1b, later runs, average pIC50 for the one or more runs
[8] = SK-MEL-28, 72 h, Table 3a, 3 days incubation, read-out: Activity in SK-MEL-28 Tumor Cells
[9] = SK-MEL-28, Table 3b, later runs, average for the one or more runs, categorized, read-out: IC50 for SK-MEL-28
[10] = Table 1b, later runs, average pIC50 for the one or more runs, read-out: B-Raf pIC50 (converted)

T1 sequence (P15056 2-766 V600E): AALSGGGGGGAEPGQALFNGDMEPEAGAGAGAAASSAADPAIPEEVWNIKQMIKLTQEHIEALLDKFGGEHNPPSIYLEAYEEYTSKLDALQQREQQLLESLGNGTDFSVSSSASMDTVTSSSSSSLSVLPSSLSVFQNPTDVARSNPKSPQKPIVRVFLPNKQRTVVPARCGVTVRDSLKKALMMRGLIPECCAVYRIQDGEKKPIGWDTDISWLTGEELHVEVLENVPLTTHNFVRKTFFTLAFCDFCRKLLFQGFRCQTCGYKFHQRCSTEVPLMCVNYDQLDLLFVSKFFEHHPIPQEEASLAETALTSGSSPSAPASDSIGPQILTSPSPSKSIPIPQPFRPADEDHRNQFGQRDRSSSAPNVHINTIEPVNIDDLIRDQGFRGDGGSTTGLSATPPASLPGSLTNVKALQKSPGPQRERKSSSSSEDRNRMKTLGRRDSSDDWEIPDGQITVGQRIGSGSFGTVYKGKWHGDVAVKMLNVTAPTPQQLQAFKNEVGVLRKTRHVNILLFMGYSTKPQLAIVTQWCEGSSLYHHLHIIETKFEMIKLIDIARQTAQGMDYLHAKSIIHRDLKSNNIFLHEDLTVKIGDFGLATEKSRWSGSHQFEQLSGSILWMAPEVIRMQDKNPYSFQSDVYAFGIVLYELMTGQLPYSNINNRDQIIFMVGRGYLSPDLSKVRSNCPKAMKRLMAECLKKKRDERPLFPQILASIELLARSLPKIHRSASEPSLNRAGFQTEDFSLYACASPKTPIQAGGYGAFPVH

With `CC(C)c1nc(-c2cccc(NS(=O)(=O)c3cc(F)ccc3F)c2F)c(-c2ccnc(NCCN3CCCC3=O)n2)s1` [Example 190] the IC50 [1, 4] was less than 100 nM, the IC50 [1, 5] was less than 100 nM and the IC50 [2, 6] was less than 100 nM. The IC50 [2, 7] was no more than 3.16 nM, the IC50 [3, 8] was less than 100 nM and the IC50 [3, 9] was less than 100 nM.
`CC(C)c1nc(-c2ccc(F)c(NS(=O)(=O)c3c(F)cccc3F)c2)c(-c2ccnc(NCC3CCCO3)n2)s1` (stereo not drawn) [Example 5, 2,6-Difluoro-N-[2-fluoro-5-(2-(1-methylethyl)-5-{2-[(tetrahydro-2-furanylmethyl)amino]-4-pyrimidinyl}-1,3-thiazol-4-yl)phenyl]benzenesulfonamide] showed an IC50 [1, 4] of 100 to 1000 nM, an IC50 [1, 5] of 1000 to 10000 nM and an IC50 [2, 6] of 100 to 1000 nM. It also gave an IC50 [2, 7] of 31.6 to 1000 nM, an IC50 [3, 8] of 100 to 1000 nM and an IC50 [3, 9] of 100 to 1000 nM.
`Nc1nccc(-c2sc(C3CCOCC3)nc2-c2cccc(NS(=O)(=O)c3cc(F)ccc3F)c2F)n1` [Example 245, N-{3-[5-(2-amino-4-pyrimidinyl)-2-(tetrahydro-2H-pyran-4-yl)-1,3-thiazol-4-yl]-2-fluorophenyl}-2,5-difluorobenzenesulfonamide] gave an IC50 [1, 5] of less than 100 nM, an IC50 [2, 7] of no more than 3.16 nM and an IC50 [3, 9] of less than 100 nM.
For `CCOCCNc1nccc(-c2sc(C(C)C)nc2-c2ccc(F)c(NS(=O)(=O)c3c(F)cccc3F)c2)n1` [Example 4, N-{5-[5-(2-{[2-(Ethyloxy)ethyl]amino}-4-pyrimidinyl)-2-(1-methylethyl)-1,3-thiazol-4-yl]-2-fluorophenyl}-2,6-difluorobenzenesulfonamide], the IC50 [1, 4] was 100 to 1000 nM, the IC50 [1, 5] was 1000 to 10000 nM and the IC50 [2, 6] was less than 100 nM. For the same compound, the IC50 [2, 7] was 31.6 to 1000 nM, the IC50 [3, 8] was 100 to 1000 nM and the IC50 [3, 9] was 100 to 1000 nM.
Compound `Cc1nccc(-c2sc(C(C)(C)C)nc2-c2cccc(NS(=O)(=O)c3cc(F)ccc3F)c2Cl)n1` [Example 229, N-{2-chloro-3-[2-(1,1-dimethylethyl)-5-(2-methyl-4-pyrimidinyl)-1,3-thiazol-4-yl]phenyl}-2,5-difluorobenzenesulfonamide] has an IC50 [1, 5] of less than 100 nM, an IC50 [2, 10] of 3.16 to 31.6 nM and an IC50 [3, 9] of less than 100 nM.
`CC(C)c1nc(-c2ccc(F)c(NS(=O)(=O)c3cc(F)ccc3F)c2)c(-c2ccnc(NC3CCN(S(C)(=O)=O)CC3)n2)s1` [Example 75, 2,5-Difluoro-N-{2-fluoro-5-[2-(1-methylethyl)-5-(2-{[1-(methylsulfonyl)-4-piperidinyl]amino}-4-pyrimidinyl)-1,3-thiazol-4-yl]phenyl}benzenesulfonamide] showed an IC50 [1, 4] of less than 100 nM, an IC50 [1, 5] of less than 100 nM and an IC50 [2, 6] of less than 100 nM. It also gave an IC50 [2, 7] of no more than 3.16 nM, an IC50 [3, 8] of less than 100 nM and an IC50 [3, 9] of less than 100 nM.
Work on `CC(C)CNc1nccc(-c2sc(C(C)(C)C)nc2-c2cccc(NS(=O)(=O)c3cc(F)ccc3F)c2Cl)n1` [Example 23, N-[2-Chloro-3-(2-(1,1-dimethylethyl)-5-{2-[(2-methylpropyl)amino]-4-pyrimidinyl}-1,3-thiazol-4-yl)phenyl]-2,5-difluorobenzenesulfonamide] yielded an IC50 [1, 4] of 100 to 1000 nM, an IC50 [1, 5] of 100 to 1000 nM and an IC50 [2, 6] of less than 100 nM. For the same compound, the IC50 [2, 10] was 3.16 to 31.6 nM, the IC50 [3, 8] was 100 to 1000 nM and the IC50 [3, 9] was 100 to 1000 nM.
`CC(C)(C)c1nc(-c2cccc(NS(=O)(=O)c3ccco3)c2Cl)c(-c2ccnc(N)n2)s1` [Example 259, N-{3-[5-(2-amino-4-pyrimidinyl)-2-(1,1-dimethylethyl)-1,3-thiazol-4-yl]-2-chlorophenyl}-2-furansulfonamide] was tested, and the IC50 [1, 5] was less than 100 nM, the IC50 [2, 7] was no more than 3.16 nM and the IC50 [3, 9] was less than 100 nM.
`Cc1csc(S(=O)(=O)Nc2cccc(-c3nc(C(C)(C)C)sc3-c3ccnc(N)n3)c2F)c1` [Example 235, N-{3-[5-(2-amino-4-pyrimidinyl)-2-(1,1-dimethylethyl)-1,3-thiazol-4-yl]-2-fluorophenyl}-4-methyl-2-thiophenesulfonamide] was tested, and the IC50 [1, 5] was less than 100 nM, the IC50 [2, 10] was 3.16 to 31.6 nM and the IC50 [3, 9] was less than 100 nM.
With `COCC(C)Nc1nccc(-c2sc(C(C)C)nc2-c2ccc(F)c(NS(=O)(=O)c3c(F)cccc3F)c2)n1` (stereo not drawn) [Example 162] the IC50 [1, 4] was 100 to 1000 nM, the IC50 [1, 5] was 100 to 1000 nM and the IC50 [2, 6] was 100 to 1000 nM. It also gave an IC50 [2, 7] of 31.6 to 1000 nM, an IC50 [3, 8] of 100 to 1000 nM and an IC50 [3, 9] of 100 to 1000 nM.
`Nc1nccc(-c2sc(N3CCOCC3)nc2-c2cccc(NS(=O)(=O)c3cc(F)ccc3F)c2)n1` [Example 200] was tested, and the IC50 [1, 4] was 100 to 1000 nM, the IC50 [1, 5] was 100 to 1000 nM and the IC50 [2, 6] was less than 100 nM. For the same compound, the IC50 [2, 10] was 3.16 to 31.6 nM, the IC50 [3, 8] was 100 to 1000 nM and the IC50 [3, 9] was 100 to 1000 nM.
`CC(C)c1nc(-c2ccc(F)c(NS(=O)(=O)c3cc(F)ccc3F)c2)c(-c2ccnc(NC3CCNCC3)n2)s1` [Example 125] was tested, and the IC50 [1, 4] was 100 to 1000 nM, the IC50 [1, 5] was 100 to 1000 nM and the IC50 [2, 6] was less than 100 nM. For the same compound, the IC50 [2, 10] was 3.16 to 31.6 nM, the IC50 [3, 8] was 100 to 1000 nM and the IC50 [3, 9] was 100 to 1000 nM.
Compound `CC(C)(C)c1nc(-c2ccc(F)c(NS(=O)(=O)c3c(F)cccc3F)c2)c(-c2ccnc(N[C@H]3CC[C@H](NS(C)(=O)=O)CC3)n2)s1` [Example 16, N-(5-{2-(1,1-Dimethylethyl)-5-[2-({trans-4 [(methylsulfonyl)amino]cyclohexyl}amino)-4-pyrimidinyl]-1,3-thiazol-4-yl}-2-fluorophenyl)-2,6-difluorobenzenesulfonamide] has an IC50 [1, 4] of less than 100 nM, an IC50 [1, 5] of less than 100 nM and an IC50 [2, 6] of less than 100 nM. For the same compound, the IC50 [2, 10] was 3.16 to 31.6 nM, the IC50 [3, 8] was less than 100 nM and the IC50 [3, 9] was less than 100 nM.
`CC(C)c1nc(-c2cccc(NS(=O)(=O)c3cnn(C)c3)c2)c(-c2ccnc(NCCS(C)(=O)=O)n2)s1` [Example 35, 1-Methyl-N-{3-[2-(1-methylethyl)-5-(2-{[2-(methylsulfonyl)ethyl]amino}-4-pyrimidinyl)-1,3-thiazol-4-yl]phenyl}-1H-pyrazole-4-sulfonamide trifluoroacetic acid salt] gave an IC50 [1, 4] of 100 to 1000 nM, an IC50 [1, 5] of 100 to 1000 nM and an IC50 [2, 6] of less than 100 nM. For the same compound, the IC50 [2, 10] was 3.16 to 31.6 nM, the IC50 [3, 8] was 100 to 1000 nM and the IC50 [3, 9] was 100 to 1000 nM.
For `CC(C)c1nc(-c2cccc(NS(=O)(=O)N3CCOCC3)c2)c(-c2ccnc(NCCS(C)(=O)=O)n2)s1` [Example 37, N-{3-[2-(1-Methylethyl)-5-(2-{[2-(methylsulfonyl)ethyl]amino}-4-pyrimidinyl)-1,3-thiazol-4-yl]phenyl}-4-morpholinesulfonamide trifluoroacetic acid salt], the IC50 [1, 4] was 100 to 1000 nM, the IC50 [1, 5] was 100 to 1000 nM and the IC50 [2, 6] was 100 to 1000 nM. For the same compound, the IC50 [2, 7] was 31.6 to 1000 nM, the IC50 [3, 8] was 100 to 1000 nM and the IC50 [3, 9] was 100 to 1000 nM.
Compound `CC(C)(C)c1nc(-c2cccc(NS(=O)(=O)c3cccc(F)c3)c2F)c(-c2ccnc(N)n2)s1` [Example 218, N-{3-[5-(2-amino-4-pyrimidinyl)-2-(1,1-dimethylethyl)-1,3-thiazol-4-yl]-2-fluorophenyl}-3-fluorobenzenesulfonamide] has an IC50 [1, 5] of less than 100 nM, an IC50 [2, 7] of no more than 3.16 nM and an IC50 [3, 9] of less than 100 nM.
`O=S(=O)(Nc1cccc(-c2nc(N3CCOCC3)sc2-c2ccncn2)c1Cl)c1ccoc1` [Example 269, N-{2-chloro-3-[2-(4-morpholinyl)-5-(4-pyrimidinyl)-1,3-thiazol-4-yl]phenyl}-3-furansulfonamide] was tested, and the IC50 [1, 5] was less than 100 nM, the IC50 [2, 7] was no more than 3.16 nM and the IC50 [3, 9] was 100 to 1000 nM.
For `CC(C)(C)c1nc(-c2cccc(NS(=O)(=O)c3cc(F)ccc3F)c2F)c(-c2ccnc(NCCCN3CCCC3=O)n2)s1` [Example 96, N-{3-[2-(1,1-Dimethylethyl)-5-(2-{[3-(2-oxo-1-pyrrolidinyl)propyl]amino}-4-pyrimidinyl)-1,3-thiazol-4-yl]-2-fluorophenyl}-2,5-difluorobenzenesulfonamide], the IC50 [1, 4] was less than 100 nM, the IC50 [1, 5] was less than 100 nM and the IC50 [2, 6] was less than 100 nM. The IC50 [2, 7] was no more than 3.16 nM, the IC50 [3, 8] was less than 100 nM and the IC50 [3, 9] was less than 100 nM.
Compound `CC(C)(C)c1nc(-c2cccc(NS(=O)(=O)c3cc(F)ccc3F)c2Cl)c(-c2ccnc(N)n2)s1` [Example 241, N-{3-[5-(2-amino-4-pyrimidinyl)-2-(1,1-dimethylethyl)-1,3-thiazol-4-yl]-2-chlorophenyl}-2,5-difluorobenzenesulfonamide] has an IC50 [1, 5] of less than 100 nM, an IC50 [2, 7] of no more than 3.16 nM and an IC50 [3, 9] of less than 100 nM.
`CC(C)CNc1nccc(-c2sc(C(C)C)nc2-c2cccc(NS(=O)(=O)c3cccnc3)c2)n1` [Example 155] showed an IC50 [1, 4] of 100 to 1000 nM, an IC50 [1, 5] of 100 to 1000 nM and an IC50 [2, 6] of less than 100 nM. It also gave an IC50 [2, 7] of no more than 3.16 nM, an IC50 [3, 8] of 100 to 1000 nM and an IC50 [3, 9] of 100 to 1000 nM.
`CC(C)Nc1nccc(-c2sc(N3CCOCC3)nc2-c2cccc(NS(=O)(=O)c3cc(F)ccc3F)c2F)n1` [Example 83, 2,5-Difluoro-N-{2-fluoro-3-[5-{2-[(1-methylethyl)amino]-4-pyrimidinyl}-2-(4-morpholinyl)-1,3-thiazol-4-yl]phenyl}benzenesulfonamide] gave an IC50 [1, 4] of less than 100 nM, an IC50 [1, 5] of less than 100 nM and an IC50 [2, 6] of less than 100 nM. It also gave an IC50 [2, 7] of no more than 3.16 nM, an IC50 [3, 8] of less than 100 nM and an IC50 [3, 9] of less than 100 nM.
`CC(C)c1nc(-c2cccc(NS(=O)(=O)c3cc(F)ccc3F)c2F)c(-c2ccnc(NCCNC(=O)OC(C)(C)C)n2)s1` [Example 189] gave an IC50 [1, 4] of less than 100 nM, an IC50 [1, 5] of less than 100 nM and an IC50 [2, 6] of less than 100 nM. For the same compound, the IC50 [2, 7] was no more than 3.16 nM, the IC50 [3, 8] was less than 100 nM and the IC50 [3, 9] was less than 100 nM.
Work on `Cc1nccc(-c2sc(C3CCOCC3)nc2-c2cccc(NS(=O)(=O)c3cc(F)ccc3F)c2F)n1` [Example 246, 2,5-difluoro-N-{2-fluoro-3-[5-(2-methyl-4-pyrimidinyl)-2-(tetrahydro-2H-pyran-4-yl)-1,3-thiazol-4-yl]phenyl}benzenesulfonamide] yielded an IC50 [1, 5] of less than 100 nM, an IC50 [2, 10] of 3.16 to 31.6 nM and an IC50 [3, 9] of less than 100 nM.
